# Measured values from patent EP4595972A1, “PEPTIDE FOR TREATING OR PREVENTING 4R TAUOPATHY” (GemVax & KAEL Co., Ltd., priority 2022, dated 2024).
# Columns and labels:
# TauP301L-BiFC mice = assay: Novel object recognition test (cognitive ability) in 4R TauP301L-BiFC mouse model; type: in vivo; settings: LMTM 15 mg/kg; mice administered 62 times; FIG. 3
# Method: • (1) On day 1, adaptation training to a new open space was conducted. After an adaptation time for two similar objects added to the corresponding open space on day 2, an experiment to evaluate a cognitive ability to the newly replaced object on day 3 was conducted. • (2) 1 hour before the experiment, a time for adaptation of experimental mice in a space wherein the behavior experiment is conducted, should be ensured. • (3) On day 1, after exposing the experimental mouse to an open space in a size of 40 x 40 cm, the mouse was subjected to behavior assessment for 10 minutes. • (4) On day 2, two similar objects were placed in the same open space, followed by enabling the mouse to learn the objects for 10 minutes. • (5) On day 3, one among the two objects learned in the same open space was replaced with a new object. At this time, a cognitive ability to the replaced object was evaluated.
# Results of evaluating the cognitive ability improvement efficacy through a novel object recognition test in the 4R TauP301L-BiFC mouse model were shown in FIG. 3. The experiment was conducted using the TauP301L-BiFC mouse model including 7- to 12-month-old mice administered with the drug for 5 months. […] The obtained results were analyzed through bidirectional ANOVA using Sidak's multiple comparisons test (*p<0.05; ***p<0.0001).
# [1] = test system: human Tau-BiFC (hTau-VN173, hTau-VC155); assay: Tau immunoblot of brain lysate, soluble fraction, hTau; type: in vivo, mouse; settings: LMTM 15 mg/kg oral vs. vehicle; decrease (in parentheses)
# Method: (§1) • (1) After completing administration, the mice of TauP301L-BiFC mouse model were anesthetized, followed by preparing heart laparotomy. • (2) Saline was introduced to the heart of each mouse in the TauP301L-BiFC mouse model, followed by removing vivo blood using a perfusion pump machine. • (3) After removing the blood, the brain was extracted and weighed. • (4) 1 mL RIPA buffer (w/protease/phosphatase inhibitor cocktail) was added to the extracted brain, followed by homogenization. • (5) After moving the homogenized brain lysate to an ep-tube, it was subjected to incubation in 4°C orbital shaker for 2 hours. • (6) After centrifugation at 4°C with a speed of 13,000 rpm for 20 minutes, the supernatant (soluble fraction) was collected in a new ep-tube and stored at -80°C • (7) In order to prepare an immunoblot sample, the concentration of a soluble fraction sample was quantified by Bradford protein quantification method. • (8) To each sample, RIPA buffer and 4X SDS Laemmli sample buffer (w/ 2.5% β-mercaptoethanol for reducing condition) were added to reach a final concentration of 2 mg/mL. • (9) The sample was boiled at 97°C for 5 minutes. […]
# mouse Tau (mTau) = assay: Tau immunoblot of brain lysate, soluble fraction, mTau; type: in vivo; settings: LMTM 15 mg/kg oral vs. vehicle, decrease (in parentheses)
# Method: as §1
# total tau (Tau5) = assay: Tau immunoblot of brain lysate, insoluble fraction, total tau; type: in vivo, mouse; settings: LMTM 15 mg/kg oral vs. vehicle; decrease (in parentheses)
# Method: • (1) Pellets remaining after moving the supernatant (soluble fraction) were dispersed in 1 mL of 1M sucrose, DNase I (conc. 1 mg/mL) in RIPA buffer. • (2) After centrifugation at 4°C with a speed of 13,000 rpm for 20 minutes, the supernatant was removed. • (3) After resuspension of pellets in 2% SDS solution (1 mL per gram of tissue), the mixture was subjected to incubation at room temperature for 1 hour. • (4) After centrifugation at room temperature with a speed of 13,000 rpm for 1 minute, the supernatant (insoluble fraction) was collected and moved to a new ep-tube, and the same amount of 2X SDS Laemmli sample buffer (w/ 2.5% β-mercaptoethanol for reducing condition) was added thereto. • (5) The sample was boiled at 97°C for 5 minutes. […]
smiles,measurement,setting,value
CN(C)c1ccc2c(c1)Sc1cc(N(C)C)ccc1N2.CS(=O)(=O)O.CS(=O)(=O)O [LMTM],"cognitive ability for the new object (novel object recognition test), in words",TauP301L-BiFC mice,significantly improved
same,"Soluble fraction, Phosphorylated tau, hTau (pS199)",[1],(20%)
same,"Soluble fraction, Phosphorylated tau, hTau (pS396)",[1],(23%)
same,"Soluble fraction, Total tau, hTau",[1],(20%)
same,"Soluble fraction, Phosphorylated tau, mTau (pS199)",mouse Tau (mTau); ***p<0.001,(34%)** *
same,"Soluble fraction, Total tau, mTau",mouse Tau (mTau); **p<0.01,(24%)**
same,"Soluble fraction, Phosphorylated tau, mTau (pS396)",mouse Tau (mTau); *p<0.05,(27%)*
same,"Insoluble fraction, Total tau",total tau (Tau5),(42%)
